Read-outs that look alike come from different tables or passages of the source.

We go through seven molecules from paper PMC7015555, “Transthyretin-Binding Activity of Complex Mixtures Representing the Composition of Thyroid-Hormone Disrupting Contaminants in House Dust and Human Serum” (Environmental Health Perspectives, 2020).

Details of data set [1]: method as in Jahnke et al. 2004. The settings on record: rodents; ref Jahnke et al. 2004; cited from earlier work.
Data set [2] deals with TTR. The settings on record: cited from earlier work; for IC50 / REP, Radioactive Ligand Binding Assay data from the literature: ref Weiss et al. 2015; for IC50: read-out: IC50 (M), Radioactive Ligand Binding Assay data from the literature; for REP, Radioactive Ligand Binding Assay data from the literature: relative effect potency.
Data set [3] concerns the target T1, TTR (Homo sapiens, UniProt P02766). The data set can be described thus: FITC-T4 TTR competitive binding assay. The settings on record: for REP (relative potency compared to T4): IC20 of T4 / IC20 of compound (Equation 14); for T4EQ concentration (nmol/g dust): reported concentration of the compound in SRM2585 dust x REP.
Data set [4] addresses TBG. The settings on record: ref Salvatore et al. 2016; read-out: Kd(TBG) for T4; cited from earlier work.
On the set-up of data set [5]: method as in Jahnke et al. 2004. The settings on record: humans; ref Jahnke et al. 2004; cited from earlier work.
For data set [6], the target named is T1, TTR. The data set can be described thus: Saturation experiment for the FITC-T4-TTR complex. Format: binding. The settings on record: 30 nM TTR, FITC-T4 0 to 1,000 nM, no inhibitor. The method, then:
Competitive TTR-binding assays were performed by incubating human TTR ( 30nM ) with 110nM of FITC- T4 in the presence of test compounds, reference compound T4 , or carrier solvent control (1% DMSO). For each incubation with TTR, a parallel incubation was performed without TTR to correct for background fluorescence of the unbound FITC- T4 . In the competitive binding experiments, these control incubations were also used to check for possible quenching of FITC- T4 fluorescence by the test compounds and for autofluorescence of the test compounds themselves, neither of which was observed. […]
The Kd value for the FITC-T4-TTR complex was determined in a saturation binding experiment with various concentrations of FITC-T4 (ranging from LT = 0 to LT = 1E-6 M) in the absence or the presence of a fixed concentration of TTR (PT = 3E-8 M).
Using the least-squares method, a non-linear regression fit was performed on the corrected fluorescence Fc as a function of LT, yielding parameter estimates p*(q-1)=0.644 (AFU/nM) and […]
S1.4 Derivation of Ki from the ICx determined in the bioassay
The inhibitor-specific ICx value determined in the bioassay is defined as the total inhibitor concentration [IT] at which the concentration of ligand-protein complex [PLx] is (100-x)% of the concentration of ligand-protein complex in the absence of inhibitor [PL0], i.e. […]

[7] abbreviates: 20% inhibition of FITC-T4 binding to TTR, 30 nM TTR, 110 nM FITC-T4, 2 h at 4°C, pH 8.0.
The mark [8] stands for this setting: individual compounds, 30 nM TTR, 110 nM FITC-T4, 2 h at 4°C, pH 8.0, — = 50% inhibition level not reached (footnote g), read-out: IC50.
Setting [9] is: inhibitor-TTR dissociation constant converted from IC20 (Equation 4), 4°C, read-out: Ki.

For `NC(Cc1cc(I)c(Oc2cc(I)c(O)c(I)c2)c(I)c1)C(=O)O` (centres unmarked) [Thyroxine ( T4 ), thyroxine], the T4 half-life time in data set [1] was 12 to 24 h; in data set [5], 120 to 220 h. Also, the IC20 – broadly, the point of the concentration-response curve where the effect stands at 20% – in data set [2] (ref Hamers et al. 2008, Weiss et al. 2009, read-out: IC20 in the radioligand binding assay) is roughly 30 nM; in data set [3] (pH 8), 21 nM. Also, in data set [4], the equilibrium dissociation constant (Kd) (as a rule, the constant that tells how readily two partners part at equilibrium) was 0.1 nM.

On to `O=S(=O)(O)C(F)(F)C(F)(F)C(F)(F)C(F)(F)F` [PFBS, perfluorobutane sulfonic acid], for which, in data set [2], the half-inhibitory concentration (IC50) (as a rule, the concentration that gives 50% inhibition) is 1.95e-05 M and the “REP, Radioactive Ligand Binding Assay data from the literature” value (“REP … from the literature” below) was 0.003. Also, the IC20 in data set [3] (setting [7]) was determined as 2300 nM. For the same molecule, in data set [3], the “REP (relative potency compared to T4)” value was found to be 0.0091 and the “T4EQ concentration (nmol/g dust)” value was 0.002 nmol/g dust. Further, in data set [3] (setting [8]), the half-maximal inhibitory concentration (IC50) is 9700 nM. Further, in data set [3] (setting [9]), the Ki (in general, a measure of affinity in units of concentration, obtained from inhibition or displacement) was found to be 5100 nM.

As to `O=C1OC2(c3ccc(O)cc3Oc3cc(O)ccc32)c2ccc(NC(=S)NC(Cc3cc(I)c(Oc4cc(I)c(O)c(I)c4)c(I)c3)C(=O)O)cc21` (centres unmarked) [FITC- T4], the Kd in data set [6] came out at 140 nM.

As for `Oc1c(Cl)c(Cl)c(Cl)c(Cl)c1Cl` [Pentachlorophenol, pentachlorophenol], in data set [2], the IC50 is 2.3e-07 M and the “REP … from the literature” value was 1.74. Further, in data set [3], the concentration for half-maximal inhibition (IC50) turned out to be 60 nM, the inhibition constant Ki is 24 nM and the “REP (relative potency compared to T4)” value stood at 1.2. The molecule further showed an IC20 in data set [3] (pH 8) of 17 nM.

As to `O=C(O)C(F)(F)C(F)(F)C(F)(F)C(F)(F)C(F)(F)F` [PFHxA, perfluorohexanoic acid], the 50% inhibitory concentration (IC50) in data set [2] is 8.22e-06 M. Further, the concentration for an effect of 20% (IC20) in data set [3] (setting [7]) amounted to 1600 nM. In data set [3], the “REP (relative potency compared to T4)” value is recorded as 0.014 and the “T4EQ concentration (nmol/g dust)” value is on record as 0.011 nmol/g dust. Besides, the IC50 in data set [3] (setting [8]) was determined as 5600 nM. Moreover, the inhibitory constant (Ki) in data set [3] (read-out: Ki) came to 3400 nM.

Regarding `O=S(=O)(O)C(F)(F)C(F)(F)C(F)(F)C(F)(F)C(F)(F)C(F)(F)F` [PFHxS, perfluorohexane sulfonic acid], in data set [2], the IC50 was 7.17e-07 M and the “REP … from the literature” value is listed as 0.085. Further, in data set [3], the Ki is 280 nM, the “REP (relative potency compared to T4)” value is 0.16 and the “T4EQ concentration (nmol/g dust)” value is listed as 0.561 nmol/g dust. This molecule gave an IC20 in data set [3] (pH 8) of 140 nM. Moreover, the IC50 in data set [3] (read-out: IC50) turned out to be 460 nM.

Consider `Oc1cc(Br)cc(Br)c1Oc1ccc(Br)cc1Br` [6-OH-BDE-47, 6-OH-2,2ʹ,4,4ʹ-tetrabromodiphenyl ether], for which, in data set [2], the IC50 was 1.5e-07 M and the “REP … from the literature” value is 0.39. The IC20 in data set [3] (setting [7]) was 31 nM. Further, the “REP (relative potency compared to T4)” value in data set [3] was 0.68. Besides, the concentration for half-maximal inhibition (IC50) in data set [3] (setting [8]) turned out to be 98 nM. Besides, the Ki in data set [3] (setting [9]) was 54 nM.
